The target of assay [1] is T1, WT STING (Homo sapiens, UniProt Q86WV6, H232R). Kind of assay: Differential scanning fluorimetry (DSF) with WT STING. The arrangement: 8xHis (N, cleaved yes); SUMO (N, cleaved yes); made in house; host or cells: E. coli Rosetta-gami B (DE3). The class given is binding. Particulars: thermal shift vs apoprotein; 150 μM CDN; truncated human WT STING 0.1 mg/ml. The method, then: (§1) Purified PCR products were cleaved with restriction enzymes BamHI (cat. #R0136S, NEB, Ipswich, USA) and NotI (cat. #R0189S, NEB, Ipswich, USA) and cloned into the pSUMO vector linearized with the identical enzymes.
(§2) DNase I (cat. #D5025, Sigma Aldrich, Czech Republic) and RNase A (cat. #R6513, Sigma Aldrich, Czech Republic) were added (final concentration 50 μg/ml) together with MgCl2 (final concentration 5 mmol·l^−1) to the homogenate and bacteria were lysed using French Press G-M™ High-Pressure Cell Press Homogenizer (1500 psi, 3 cycles). […] The resin was poured into a chromatography column, washed with 50 ml buffer A (50 mmol·l^−1 TrisCl (pH 8.0), 800 mmol·l^−1 NaCl, 3 mmol·l^−1 β-mercaptoethanol; 10% glycerol; 20 mmol·l^−1 imidazol) and 8-His-SUMO tagged STING proteins were eluted with 15 ml buffer A containing 300 mmol·l^−1 imidazole. […] Proteins were concentrated with Amicon® Ultra-15 10 K device (cat. #UFC901008, Merck Millipore, Billerica, USA) and flash frozen in liquid N2.
(§3) 20 μL solutions of the reaction mixtures were pipetted in triplicates into 96 well optical reaction plates and thermal denaturation of samples were performed on real time PCR cycler (LightCycler® 480 Instrument II—Roche, Basel, Switzerland). The first derivative of the thermal denaturation curves was performed to calculate denaturing temperatures of STING-CDN complexes and STING apoproteins. The thermal shift for each CDN was calculated by subtracting the average denaturing temperature of STING apoprotein from the average denaturing temperature of STING CDN complex.
Target sequence in this assay (Q86WV6 140-343 H232R): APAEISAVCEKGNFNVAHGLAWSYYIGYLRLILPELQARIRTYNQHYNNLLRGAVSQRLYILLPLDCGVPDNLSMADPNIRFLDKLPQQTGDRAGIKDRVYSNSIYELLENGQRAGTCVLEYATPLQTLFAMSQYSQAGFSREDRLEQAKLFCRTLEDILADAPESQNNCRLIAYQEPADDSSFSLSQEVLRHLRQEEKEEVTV

The target in assay [2] is T1, WT STING. The assay can be described thus: Digitonin assay using 293T wtSTING-FL reporter cells. Format: cell-based. On the set-up: host or cells: 293T (ATCC CRL-3216), stably transfected, with 4xISRE firefly luciferase reporter. Particulars: 293T wtSTING-FL cells, ISRE firefly luciferase; compounds in Digitonin buffer 30 minutes, then 5 hours; 8-point curve. The source says:
Two complementary oligonucleotides of the sequence […] […] […] […] […] The oligonucleotides were mixed in equal molar amounts, hybridized, and cleaved by restriction endonucleases HindIII (cat. #. R0104S, NEB, Ipswich, USA) and BglII (cat. #R0144S, NEB, Ipswich, USA). Ultimately, they were ligated into plasmid pGL4.27 (cat. #E6651, Promega, Madison, USA) linearized with the same enzymes. As result the sequence with four ISRE sites was placed upstream of the minimum promoter of firefly luciferase reporter gene.
After 5 minutes incubation at room temperature (RT), 250 μL of the mixture was added dropwise to the cells in one well. Cells were incubated 36 hours at 37° C. with 5% CO2, and then detached with 0.05% Trypsin and 0.22 g/L EDTA (both cat. #L0941, Biowest, Riverside, USA).
Transfected cells were seeded onto poly-D-lysine coated six well plates at density 50,000 cells per 1 cm^2 in DMEM medium with high glucose containing 10% heat inactivated FBS, 30 μg/mL blasticidin (cat. #ant-b1-05, InvivoGen, San Diego, USA), 0.06 mg/ml Penicillin G and 0.1 mg/ml Streptomycin Sulfate (both cat. #. L0018, Biowest, Riverside, USA). The medium was replenished every 3-4 days until visible colonies of cells resistant to blasticidin were formed.
Blasticidin resistant cells stably expressing WT STING were further transfected with […] plasmid following the same procedure as described above. […] Homogeneous culture of stably double transfected cells was prepared by limiting dilution of cells in 96 well plates and wells with cells were selected that originated from a single cell.
The medium was removed next day and three fold serial dilutions of compounds in Digitonin buffer containing 50 mmol·l^−1 HEPES (cat. #H3375, Sigma Aldrich, Czech Republic) pH 7.0, 100 mmol·l^−1 KCl, 3 mmol·l^−1 MgCl2, 0.1 mmol·l^−1 DTT (cat. #D0632, Sigma Aldrich, Czech Republic), 85 mmol·l^−1 Sucrose (cat. #S7903, Sigma Aldrich, Czech Republic), 0.2% BSA (cat. #A2153, Sigma Aldrich, Czech Republic), 1 mmol·l^−1 ATP (cat. #A1852, Sigma Aldrich, Czech Republic), 0.1 mmol·l^−1 GTP (cat. #G8877, Sigma Aldrich, Czech Republic), and 10 μg/mL Digitonin A (cat. #D141, Sigma Aldrich, Czech Republic) were added to the cells. The buffer was removed after 30 minutes incubation at 37° C. with 5% CO2, the cells were washed once with 100 μl of cultivation medium, and 100 μl of medium was added to each well. The plates with cells were incubated for 5 hours at 37° C. with 5% CO2, 50 μl of the medium was removed and 30 μl of ONE-Glo™ Luciferase Assay System reagent (cat. #E6120, Promega, Madison, USA) was added to each well. Luminescence was read on Synergy H1 (Biotek, Winooski, USA). GraphPad Prism (La Jolla, USA) was used to calculate the 50% effective concentration ([…] from an 8-point dose-response curve.
Target sequence in this assay (Q86WV6 whole entry H232R, the tested form may be a part): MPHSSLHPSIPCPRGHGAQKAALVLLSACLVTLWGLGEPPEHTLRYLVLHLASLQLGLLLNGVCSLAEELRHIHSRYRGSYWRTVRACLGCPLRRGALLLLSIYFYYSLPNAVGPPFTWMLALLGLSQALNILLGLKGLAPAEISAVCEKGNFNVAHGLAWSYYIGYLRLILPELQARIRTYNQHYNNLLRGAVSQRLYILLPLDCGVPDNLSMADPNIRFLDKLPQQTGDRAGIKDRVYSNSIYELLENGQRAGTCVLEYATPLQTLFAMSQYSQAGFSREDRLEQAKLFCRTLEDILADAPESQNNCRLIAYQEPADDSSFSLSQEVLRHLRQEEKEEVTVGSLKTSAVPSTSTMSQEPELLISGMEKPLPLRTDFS

The next assay concerns the target T2, AQ STING (G230A-R293Q) (Homo sapiens, UniProt Q86WV6, G230A/H232R/R293Q).
T2 construct: 8xHis (N, cleaved yes); SUMO (N, cleaved yes); made in house; host or cells: E. coli Rosetta-gami B (DE3)
Kind of assay: Differential scanning fluorimetry (DSF) with AQ STING. Format: binding. Particulars: thermal shift vs apoprotein; 150 μM CDN; truncated human AQ STING 0.1 mg/ml. As to the method: as §1, §2, §3

T2 sequence (Q86WV6 140-343 G230A/H232R/R293Q): as the sequence (Q86WV6 140-343 H232R) above, with G91A, R154Q counted along it

`COC1C2OP(=O)(O)OC[C@H]3C[C@@H](n4cnc5c(N)ncnc54)C(O)C3OP(=O)(O)OC[C@H]2O[C@H]1n1cnc2c(=O)[nH]c(N)nc21` (stereo partly drawn) [Compound 114, 2-amino-9-((2R,3R,3aR,7aR,9R,10S,10aR,14aR)-9-(6-amino-9H-purin-9-yl)-5,10,12-trihydroxy-3-methoxy-5,12-dioxidodecahydro-2H-cyclopenta[d]furo[3,2-j][1,3,7,9]tetraoxa[2,8]diphosphacyclododecin-2-yl)-1,9-dihydro-6H-purin-6-one]: the ΔTm at 150 µM at WT STING [1] turned out to be 0.4 °C; at AQ STING (G230A-R293Q) it was 4.6 °C. Also, on WT STING [2], the EC50 worked out at 21800 nM.

`Nc1nc2c(ncn2[C@H]2CC3OP(=O)(O)OC[C@H]4O[C@@H](n5cnc6c(N)ncnc65)C(O)C4OP(=O)(O)OC[C@H]3C2)c(=O)[nH]1` (stereo partly drawn) [Compound 115, (6R,8R,15R,17R)-17-(2-amino-6-oxo-6,9-dihydro-1H-purin-9-yl)-8-(6-amino-9H-purin-9-yl)-3,9,12-trihydroxy-2,4,7,11,13-pentaoxa-3λ^5,12λ^5-diphosphatricyclo[13.3.0.0^6,10]octadecane-3,12-dione]: the results for the ΔTm at 150 µM on WT STING [1] and at AQ STING (G230A-R293Q) were 3.8 °C and 10.5 °C, respectively. Moreover, the concentration for a half-maximal effect (EC50) on WT STING [2] came to 70 nM.

Regarding `Nc1nc2c(ncn2[C@H]2CC3OP(=O)(O)OC[C@H]4O[C@@H](n5cnc6c(N)ncnc65)C(F)C4OP(=O)(O)OC[C@H]3C2)c(=O)[nH]1` (stereo partly drawn) [Compound 116, (6R,8R,15R,17R)-17-(2-amino-6-oxo-6,9-dihydro-1H-purin-9-yl)-8-(6-amino-9H-purin-9-yl)-9-fluoro-3,12-dihydroxy-2,4,7,11,13-pentaoxa-3λ^5,12λ^5-diphosphatricyclo[13.3.0.0^6,10]octadecane-3,12-dione], the shift in melting temperature (ΔTm) at 150 µM at WT STING [1] came to 8.5 °C; on AQ STING (G230A-R293Q), 13.1 °C. Moreover, on WT STING [2], the EC50 turned out to be 7 nM.

In the case of `Nc1nc2c(ncn2[C@H]2CC3OP(=O)(O)OC[C@H]4O[C@@H](n5cnc6c(N)ncnc65)CC4OP(=O)(O)OC[C@H]3C2)c(=O)[nH]1` (stereo partly drawn) [Compound 117, (6R,8R,15R,17R)-17-(2-amino-6-oxo-6,9-dihydro-1H-purin-9-yl)-8-(6-amino-9H-purin-9-yl)-3,12-dihydroxy-2,4,7,11,13-pentaoxa-3λ^5,12λ^5-diphosphatricyclo[13.3.0.0^6,10]octadecane-3,12-dione], the ΔTm at 150 µM worked out at 2.2 °C at WT STING [1] and 7.1 °C at AQ STING (G230A-R293Q). At WT STING [2], the concentration giving a half-maximal response (EC50) came out at 200 nM.

`Nc1nc2c(ncn2[C@@H]2C[C@@H]3COP(=O)(O)OC4C(F)[C@H](n5cnc6c(=O)[nH]c(N)nc65)O[C@@H]4COP(=O)(O)OC3C2O)c(=O)[nH]1` (stereo partly drawn) [Compound 122, 9,9′-((2R,3R,3aR,7aR,9R,10S,10aR,14aR)-3-fluoro-5,10,12-trihydroxy-5,12-dioxidodecahydro-2H-cyclopenta[d]furo[3,2-j][1,3,7,9]tetraoxa[2,8]diphosphacyclododecine-2,9-diyl)bis(2-amino-1,9-dihydro-6H-purin-6-one)]: the ΔTm at 150 µM at WT STING [1] was 3.5 °C; on AQ STING (G230A-R293Q), 9.5 °C. Also, the EC50 on WT STING [2] was found to be 1600 nM.

In the case of `Nc1nc2c(ncn2[C@H]2CC3OP(=O)(O)OC[C@H]4C[C@@H](n5cnc6c(=O)[nH]c(N)nc65)C(O)C4OP(=O)(O)OC[C@H]3C2)c(=O)[nH]1` (stereo partly drawn) [Compound 123, 9,9′-((2R,3S,3aR,7aR,9R,10aS,14aR)-3,5,12-trihydroxy-5,12-dioxidododecahydrodicyclopenta[d,j][1,3,7,9]tetraoxa[2,8]-diphospha-cyclododecine-2,9-diyl)bis(2-amino-1,9-dihydro-6H-purin-6-one)], the figures for the ΔTm at 150 µM on WT STING [1] and on AQ STING (G230A-R293Q) were 1.1 °C and 4.6 °C, respectively. For the same compound, at WT STING [2], the EC50 came out at 1200 nM.

`Nc1ncnc2c1ncn2[C@H]1CC2OP(=O)(O)OC[C@H]3C[C@@H](n4cnc5c(N)ncnc54)CC3OP(=O)(O)OC[C@H]2C1` (stereo partly drawn) [Compound 125, (2R,3aS,7aR,9R,10aS,14aR)-2,9-bis(6-amino-9H-purin-9-yl)-5,12-dihydroxydodecahydrodicyclopenta[d,j][1,3,7,9]-tetraoxa[2,8]diphosphacyclododecine 5,12-dioxide]: the ΔTm at 150 µM amounted to 0.7 °C at WT STING [1] and 5.1 °C on AQ STING (G230A-R293Q). Also, on WT STING [2], the EC50 was 13200 nM.

In the case of `Nc1ncnc2c1ncn2[C@H]1CC2OP(=O)(O)OC[C@H]3O[C@@H](n4cnc5c(N)ncnc54)CC3OP(=O)(O)OC[C@H]2C1` (stereo partly drawn) [Compound 126, (2R,3aS,7aR,9R,10aS,14aR)-2,9-bis(6-amino-9H-purin-9-yl)-5,12-dihydroxydecahydro-2H-cyclopenta[d]furo[3,2-j][1,3,7,9]tetraoxa[2,8]diphosphacyclododecine 5,12-dioxide], the values for the ΔTm at 150 µM on WT STING [1] and at AQ STING (G230A-R293Q) were 1.1 °C and 7.5 °C, respectively. Also, on WT STING [2], the EC50 amounted to 1800 nM.

With `Nc1ncnc2c1ncn2[C@@H]1C[C@@H]2COP(=O)(O)O[C@H]3[C@@H](F)[C@H](n4cnc5c(N)ncnc54)O[C@@H]3COP(=O)(O)O[C@H]2[C@@H]1F` [Compound 127, (1R,6R,8R,9R,10R,15R,17R,18R)-8,17-bis(6-amino-9H-purin-9-yl)-9,18-difluoro-3,12-dihydroxy-2,4,7,11,13-pentaoxa-3λ^5,12λ^5-diphosphatricyclo[13.3.0.0^6,10]octadecane-3,12-dione], the thermal shift (ΔTm) at 150 µM on WT STING [1] is 2.6 °C; at AQ STING (G230A-R293Q) it was 7.9 °C. For the same compound, the EC50 on WT STING [2] is 100 nM.

Take `Nc1nc2c(ncn2[C@@H]2O[C@@H]3COP(=O)(O)O[C@@H]4[C@@H](COP(=O)(O)O[C@H]3[C@H]2F)C[C@@H](n2cnc3c(N)ncnc32)[C@@H]4F)c(=O)[nH]1` [Compound 131, (1R,6R,8R,9R,10R,15R,17R,18S)-8-(2-amino-6-oxo-6,9-dihydro-1H-purin-9-yl)-17-(6-amino-9H-purin-9-yl)-9,18-difluoro-3,12-dihydroxy-2,4,7,11,13-pentaoxa-3λ^5,12λ^5-diphosphatricyclo[13.3.0.0^6,10]octadecane-3,12-dione]: the ΔTm at 150 µM on WT STING [1] stood at 13.4 °C; on AQ STING (G230A-R293Q), 21.4 °C. On WT STING [2], the 50% effective concentration (EC50) stood at 10 nM.

The values above are taken from patent publication US11766447B2, “3′3′-cyclic dinucleotide analogue comprising a cyclopentanyl modified nucleotide as sting modulator” (INSTITUTE OF ORGANIC CHEMISTRY AND BIOCHEMISTRY ASCR, V.V.I., priority 2019, dated 2023).
